According to paper PMC8125647, “A Validated LC–MS/MS Assay for the Simultaneous Quantification of the FDA-Approved Anticancer Mixture (Encorafenib and Binimetinib): Metabolic Stability Estimation” (Molecules, 2021):
Like-named read-outs stand apart in the source and are kept apart here.

Key:
[1] = Solubility in DMSO (stock preparation); format: physicochemical; settings: stocks at 1 mg/mL
Experimental: We subsequently conducted serial dilution of the stock solutions with the optimized mobile phase to obtain stocks (S1) for ENF and BNB at a 100 µg/mL concentration. The S1 stocks were then serially diluted with mobile phase to obtain stocks (S2) for ENF and BNB at a 10 µg/mL concentration. The AVB stock was dissolved in DMSO to obtain a 100 µg/mL concentration that was then serially diluted with the mobile phase to obtain a stock (S3) of AVB at a 1 µg/mL concentration.

[2] = Metabolic stability after incubation with human liver microsomes (LC-MS/MS); format: in vitro ADME; settings: for Slope (rate constant of disappearance, ln % remaining vs time): HLM; for half-life at 1 µM / microsomal CLint at 1 µM: human, human liver microsomes, HLM 1 mg/mL; for half-life at 1 µM: NADPH 1 mM, 37 °C, read-out: in vitro t1/2 (half-life); for microsomal CLint at 1 µM: read-out: CLint (intrinsic clearance)
Experimental: The slope of each regression equation was used to estimate the in vitro t1/2 using the following equations:(1) In vitro t 1/2=ln2/slope (2) In vitro t 1/2=0.693/slope
Similarly, the CLint of ENF and BNB was calculated following the in vitro t1/2 method (15) using the following equation:(3) CLint, =0.693/in vitro t 1/2. µL incubation/mg microsomes (4) CLint, =0.693/in vitro t 1/2. 1000 /1
BNB and ENF concentration during HLM incubation was adjusted to 1 µM to ensure that it was less than the Michaelis–Menten constant and constructed a linear relationship between the ratio of metabolism and incubation time. HLMs (1 mg/mL) in phosphate buffer were used to confirm the absence of nonspecific protein binding. We performed metabolic stability assessments for ENF and BNB by measuring the decrease in ENF and BNB concentrations after incubation with an HLM matrix. One micromole from ENF and BNB was incubated with HLM (1 mg protein in 1 mL phosphate buffer) in triplicate. The metabolic reaction medium was phosphate buffer (pH 7.4) containing 3.3 mM MgCl2. The metabolic mixture was pre-incubated in a 37 °C water bath for 10 min for temperature conditioning. NADPH (1 mM) was used for the initiation of the metabolic reaction, after which 2 mL ACN was used to terminate the reaction at specific time intervals (0, 1, 2.5, 7.5, 15, 30, and 50 min), allowing us to establish metabolic stability curves for ENF and BNB. We conducted this metabolic experiment for ENF alone, BNB alone, and a mixture of ENF and BNB to evaluate the metabolic stability of BNB and ENF alone and combined. The proportion of BNB and ENF remaining either alone or combined was plotted versus incubation time. From this plot, time points in the linear range were selected to plot the natural logarithm (ln) of the remaining proportions of ENF and BNB versus time. The slope of the linear part indicated the rate constant for ENF and BNB disappearance that was used for in vitro t1/2 calculation using equation (1). Then, ENF and BNB CLint values, either alone or combined, were calculated by applying the following Equation (3).

[3] = Stability in deactivated HLM matrix under laboratory storage conditions; format: physicochemical
Experimental: We evaluated the stability of ENF and BNB in deactivated HLM matrix (1 mg protein/1 mL phosphate buffer) under common laboratory storage conditions. Analyte stability evaluation was performed in different conditions: Room temperature for 8 h, three freeze–thaw cycles, storage at 4 °C for 24 h, and storage at −20 °C for 30 d. Measured values were 96.55–101.64% for ENF and 96.79–100.05% for BNB. Stability data for ENF and BNB are described in Table 4. […] The stability data reveal that the LC–MS/MS method could be successfully used for assaying ENF and BNB without noticeable loss.
The accuracy and precision of the proposed method were investigated inter- and intra-day. The intra- and inter-day accuracy and precision values were calculated according to USFDA guidelines. The stability of ENF and BNB in different conditions, room temperature for 8 h, three freeze–thaw cycles, and storage at 4 °C for 24 h and at −20 °C for 30 d, were examined.

[4] = pH 7.4, in mixture of ENF and BNB
[5] = room temperature for 8 h, 15 ng/mL
[6] = room temperature for 8 h, 150 ng/mL
[7] = room temperature for 8 h, 400 ng/mL
[8] = stored at 4 °C for 24 h, 400 ng/mL
[9] = stored at −20 °C for 30 days, 15 ng/mL
[10] = stored at −20 °C for 30 days, 150 ng/mL
[11] = stored at −20 °C for 30 days, 400 ng/mL
[12] = three freeze–thaw cycles, 15 ng/mL
[13] = three freeze–thaw cycles, 150 ng/mL
[14] = three freeze–thaw cycles, 400 ng/mL

| Compound | Solubility in DMSO [1] | Slope (rate constant of disappearance, ln % remaining vs time) ([2]; drug alone) | half-life at 1 µM ([2]; pH 7.4, drug alone) [min] | microsomal CLint at 1 µM ([2]; pH 7.4, drug alone) [µL/min/mg] | half-life at 1 µM [2, 4] [min] | microsomal CLint at 1 µM [2, 4] [µL/min/mg] | Slope (rate constant of disappearance, ln % remaining vs time) ([2]; in mixture of ENF and BNB) | Recovery % [3, 5] [%] | Recovery % [3, 6] [%] | Recovery % [3, 7] [%] | Recovery % ([3]; stored at 4 °C for 24 h, 15 ng/mL) [%] | Recovery % ([3]; stored at 4 °C for 24 h, 150 ng/mL) [%] | Recovery % [3, 8] [%] | Recovery % [3, 9] [%] | Recovery % [3, 10] [%] | Recovery % [3, 11] [%] | Recovery % [3, 12] [%] | Recovery % [3, 13] [%] | Recovery % [3, 14] [%] | Stability, measured values over all storage conditions ([3]; room temperature 8 h, three freeze–thaw cycles, 4 °C 24 h, −20 °C 30 d) |
| --- | --- | --- | --- | --- | --- | --- | --- | --- | --- | --- | --- | --- | --- | --- | --- | --- | --- | --- | --- | --- |
| C=CC(=O)Nc1cccc(Oc2nc(Nc3ccc(N4CCN(C)CC4)c(F)c3)nc3[nH]ccc23)c1 [AVB, avitinib] | freely soluble | – | – | – | – | – | – | – | – | – | – | – | – | – | – | – | – | – | – | – |
| Cn1cnc2c(F)c(Nc3ccc(Br)cc3F)c(C(=O)NOCCO)cc21 [BNB, binimetinib] | freely soluble | 0.0115 | 60.3 | 11.5 | 58.2 | 11.9 | 0.0119 | 99.25 | 98.25 | 98.85 | 100.05 | 97.59 | 99.33 | 96.72 | 97.72 | 98.78 | 98.32 | 96.79 | 97.48 | – |
| COC(=O)N[C@@H](C)CNc1nccc(-c2cn(C(C)C)nc2-c2cc(Cl)cc(NS(C)(=O)=O)c2F)n1 [ENF, encorafenib] | freely soluble | 0.0161 | 43.1 | 16.1 | 45.9 | 15.1 | 0.0151 | 101.64 | 100.55 | 101.46 | – | – | 98.21 | 100.18 | 96.55 | 98.41 | 97.37 | 97.22 | 99.66 | 96.55–101.64% |
